Test results as given in patent US20090197852A9 (priority 2001, published 2009).
Entries after “also recorded” stand apart in the source; their conditions may differ. Where two headings read alike, the source gives them in different places.

Tests used:
[1] = cellular assays; cited from earlier work
[2] = patients treated at 56 mg/m^2; cited from earlier work
[3] = 80 mg/m^2 dose level, daily x5, cited from earlier work; for Cmax: read-out: plasma Cmax
[4] = population PK analysis; cited from earlier work
NSCLC cells = conditions: cited from earlier work
[5] = test system: SKBr3 breast cancer cells; conditions: cited from earlier work
MEXF 276L melanoma cells = conditions: cited from earlier work
breast cancer cells = conditions: cited from earlier work
[6] = Dose limiting toxicity and adverse events in trial of 17-AAG with trastuzumab; conditions: 450 mg/m^2/single administration of 17-AAG once weekly for four weeks
Protocol: The invention was tested in an open-label, dose escalating clinical trial. […] Metastatic disease, if present, was not progressing so as to required palliative treatment. […] Patients were assessed in 4-week cycles.
Dosing. […] If two or more of six evaluable patients entered in a cohort experienced a DLT then the MTD was exceeded; if the previous dose level produced DLT in no more than 1 out of 6 patients, then this dose was considered the MTD and was used for all subsequent patients entered in the phase 2 portion of the study.

[7] = test system: colon adenocarcinoma cells; conditions: cited from earlier work
[8] = cited from earlier work
leukemia cells = conditions: cited from earlier work
metastatic melanoma = conditions: cited from earlier work
clinical = conditions: human, in vivo; for AUC / AUC(0-t) / Tmax / Cmax: iv; for Cmax: first dose
Protocol: Patients were assessed in 4-week cycles.
PK assessment. PK sampling was obtained during the first treatment cycle only. […] Plasma concentrations were determined by a validated liquid chromatography-mass spectrometry (LC-MS) method.
For patients with a body surface area greater than 2.4 m^2, dosing was calculated using a maximum BSA of 2.4 m^2.
Plasma samples from some of the patients were assayed using a validated good laboratory practice (GLP) compliant analytical method.
All of the patients' plasma samples were analyzed.

[9] = test system: solid tumors and lymphomas; conditions: 3 weeks out of a 4 week cycle, cited from earlier work
[10] = test system: lung cancer cells with wild-type Rb; conditions: cited from earlier work
advanced solid tumors = conditions: cited from earlier work
solid tumors = conditions: cited from earlier work
[11] = free base form; cited from earlier work
[12] = All cohorts combined (225-450 mg/m^2), mean
[13] = Cohort 1, 17-AAG 225 mg/m^2 IV over 120 min with trastuzumab, first dose, mean
[14] = Cohort 2, 17-AAG 300 mg/m^2 IV over 120 min with trastuzumab, first dose, mean
[15] = Cohort 3, 17-AAG 375 mg/m^2 IV over 120 min with trastuzumab, first dose, mean
[16] = Cohort 4, 17-AAG 450 mg/m^2 IV over 120 min with trastuzumab, first dose, mean
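For AUC in this document: Open-label dose-escalation clinical trial, plasma drug levels measured by validated LC-MS, sampling during the first 4-week treatment cycle only.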
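For MRT in this document: Open-label dose-escalation clinical trial, plasma drug levels measured by validated LC-MS, sampling during the first 4-week treatment cycle only.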
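For Tmax in this document: Open-label dose-escalation clinical trial, plasma drug levels measured by validated LC-MS, sampling during the first 4-week treatment cycle only.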
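For Vd in this document: Open-label dose-escalation clinical trial, plasma drug levels measured by validated LC-MS, sampling during the first 4-week treatment cycle only.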

CO[C@H]1/C=C\C=C(/C)C(=O)NC2=CC(=O)C(N)=C(C[C@@H](C)C[C@H](OC)[C@H](O)[C@@H](C)/C=C(\C)[C@@H]1OC(N)=O)C2=O [17-AG, 17-amino-17-demethoxygeldanamycin]
activity relative to 17-AAG [1]: equipotent; also recorded: activity approximately equal to that of 17-AAG | Clearance [2]: 30.8 L/h/m^2 | Vz [2]: 203 L/m^2 | average AUC [2]: 5,558 nM*h | average t1/2 [2]: 8.6 h | t1/2 [3]: 1.75 h | Cmax [3]: 607 nM | Clearance [4]: 21.3 L/h

C=CCNC1=C2C[C@@H](C)C[C@H](OC)[C@H](O)[C@@H](C)/C=C(\C)[C@H](OC(N)=O)[C@@H](OC)/C=C\C=C(/C)C(=O)NC(=CC1=O)C2=O [17-AAG, 17-allylamino-17-demethoxygeldanamycin]
effect of exposure on client proteins (NSCLC cells): depletion of erbB1 and erbB2 levels | effect of exposure on client proteins [5]: depletion of erbB2 and destabilization of Raf-1 and mutant p53 | Clearance [2]: 19.9 L/h/m^2 | Vz [2]: 93 L/m^2 | average AUC [2]: 6,708 nM*h | Cmax [3]: 2700 nM | effect of exposure on client proteins (MEXF 276L melanoma cells): depletion of Hsp90 and down-regulation of Raf-1 and erbB2 | effect of exposure on client proteins (breast cancer cells): depletion of steroid receptors | DLT [6]: without reaching DLT in any treated patient | effect of exposure on client proteins [7]: depletion of Raf-1, c-Akt, and Erk1/2 | relation between dose and area under the curve (AUC) ([8]; dose levels studied): linear correlation | mean volume of distribution ([8]; highest dose level 450 mg/m^2): 142.6 L | effect of exposure on client proteins (leukemia cells): down-regulation of intracellular Bcr-Abl and c-Raf proteins and reduction of Akt kinase activity | complete or partial responses (metastatic melanoma; once weekly): No complete or partial responses were recorded | dose at which dose limiting toxicity was observed (metastatic melanoma; once weekly, elevation of AST): 450 mg/m^2/week | stable disease (metastatic melanoma; patients treated at 320-450 mg/m^2): two showed radiologically documented long term stable disease | Clearance (clinical; [12]): 536 mL/min | Clearance (clinical; All cohorts combined, Median): 497 mL/min | MRT (clinical; [12]): 4.71 h | MRT (clinical; All cohorts combined, Median): 4.26 h | Vd (clinical; Vss, All cohorts combined (225-450 mg/m^2), mean): 147 ± 94.8 L | Vd (clinical; Vss, All cohorts combined, Median): 128 L | Vd (clinical; Vz, All cohorts combined (225-450 mg/m^2), mean): 187 ± 156 L | Vd (clinical; Vz, All cohorts combined, Median): 146 L | AUC (clinical; 225 mg/m2): 588 ng·h/mL | AUC(0-t) (clinical; 225 mg/m2): 7950 ng·h/mL | Tmax (clinical; 225 mg/m2): 1.8 h | Cmax (clinical; 225 mg/m2, Cmax, Cohort 1, 17-AAG 225 mg/m^2 IV over 120 min with trastuzumab, mean): 3260 ng/mL | AUC (clinical; 300 mg/m2): 281 ng·h/mL | AUC(0-t) (clinical; 300 mg/m2): 15900 ng·h/mL | Tmax (clinical; 300 mg/m2): 1.9 h | Cmax (clinical; 300 mg/m2, Cmax, Cohort 2, 17-AAG 300 mg/m^2 IV over 120 min with trastuzumab, mean): 4050 ng/mL | AUC (clinical; 375 mg/m2): 490 ng·h/mL | AUC(0-t) (clinical; 375 mg/m2): 27500 ng·h/mL | Tmax (clinical; 375 mg/m2): 1.9 h | Cmax (clinical; 375 mg/m2, Cmax, Cohort 3, 17-AAG 375 mg/m^2 IV over 120 min with trastuzumab, mean): 9400 ng/mL | AUC (clinical; 450 mg/m2): 558 ng·h/mL | AUC(0-t) (clinical; 450 mg/m2): 27900 ng·h/mL | Tmax (clinical; 450 mg/m2): 2 h | Cmax (clinical; 450 mg/m2, Cmax, Cohort 4, 17-AAG 450 mg/m^2 IV over 120 min with trastuzumab, mean): 8110 ng/mL | half-life (clinical; t1/2, All cohorts combined (225-450 mg/m^2), mean): 4.13 ± 2.48 h | half-life (clinical; t1/2, All cohorts combined, Median): 3.42 h | MTD ([9]; weekly 17-AAG): 308 mg/m^2 | objective tumor responses ([9]; weekly): No objective tumor responses have been observed to date in this trial | effect of exposure on client proteins [10]: degradation of cdk4, cdk6, and cyclin E | MRT (All cohorts combined, Max): 11.44 h | Vss (All cohorts combined, Max): 308.74 L/m^2 | t1/2 (All cohorts combined, Max): 11.42 h | MRT (All cohorts combined, Min): 2.44 h | t1/2 (All cohorts combined, Min): 1.33 h | AUCext [13]: 7.1% | AUCtotal [13]: 8,539.3 ng/mL*h | AUMCtotal [13]: 29,168 ng/mL*(h^2) | Cmax [13]: 3,257.5 ng/mL | Lz [13]: 0.3804 h⁻¹ | AUCext [14]: 1.6% | AUCtotal [14]: 16,163 ng/mL*h | AUMCtotal [14]: 107,072 ng/mL*(h^2) | Lz [14]: 0.1637 h⁻¹ | AUCext [15]: 2.2% | AUCtotal [15]: 27,983 ng/mL*h | AUMCtotal [15]: 124,179 ng/mL*(h^2) | Lz [15]: 0.1996 h⁻¹ | AUCext [16]: 2.8% | AUCtotal [16]: 28,425 ng/mL*h | AUMCtotal [16]: 65,954 ng/mL*(h^2) | Lz [16]: 0.2037 h⁻¹ | dose at which nausea and vomiting secondary to pancreatitis and grade 3 fatigue were observed (advanced solid tumors; weekly for 3 out of every 4 weeks): 395 mg/m^2 | objective tumor responses (advanced solid tumors; weekly or twice weekly schedules): No objective tumor responses have been observed in this trial to date | dose limiting toxicity (solid tumors; daily for 5 days every 3 weeks): dose limiting reversible hepatotoxicity | maximum tolerated dose (MTD) and recommended Phase 2 dose (solid tumors; daily for 5 days every 3 weeks): 40 mg/m^2 | objective tumor responses (solid tumors; doses up to 110 mg/m^2 daily for 5 days every 3 weeks): No objective tumor responses were observed

C=CCNc1c(O)cc2c(O)c1C[C@@H](C)C[C@H](OC)[C@H](O)[C@@H](C)/C=C(\C)[C@H](OC(N)=O)[C@@H](OC)/C=C\C=C(/C)C(=O)N2 [17-AAGH2, 17-allylamino-18,21-dihydro-17-demethoxygeldanamycin]
stability to air oxidation [11]: air oxidizes readily
